Data on one sequence can be found in US12049483B2, “Selective and noncovalent inhibitors of oncogenic RAS mutants” (New York University, priority 2020, dated 2024).

Entries after “also recorded” stand apart in the source; their conditions may differ.

One assay addresses T1, KRAS(WT) (Homo sapiens, UniProt P01116).
T1 construct: KRAS4B residues 1-174 containing G12C, G12V, G12D, G13D, Q61L, WT; made in house; host or cells: E. coli BL21(DE3) with pBirA
The experiment in a line: Yeast display binding titration, KRAS(WT). The settings on record: either nucleotide-bound form. As to the method:
(§1) Nucleotide exchange of RAS. Purified RAS proteins used in binding experiment and crystallization were prepared by diluting stock protein (typically containing 20-250 μM RAS) 25 times with 20 mM Tris-Cl buffer pH 7.5 containing 5 mM EDTA, 0.1 mM DTT and 1 mM final concentration of a nucleotide (GDP or GTPγS). Samples were incubated at 30° C. for 30 minutes. MgCl2 was then added to the sample at a final concentration of 20 mM and the solution was further incubated on ice for at least 5 minutes prior to use.
(§2) Monobody development. General procedures for the development of monobodies against purified protein targets have been described previously. After four rounds of phage display library selection using biotinylated KRAS(G12C) at concentrations of 100 nM, 100 nM, 50 nM and 50 nM, the genes encoding monobodies from the enriched phage pool were transferred to a yeast display vector, which was used to construct yeast-display libraries. The yeast display libraries were sorted using a Bio-Rad S3e fluorescence-activated cell sorter or a […] II cell sorter (BD Biosciences). […] Single clones were then screened for selective binding to RAS mutants. The expression of monobodies on the surface of yeast cells were detected using mouse anti-VS and anti-mouse IgG-FITC conjugate. Target binding was detected with neutravidin Dylight650. Yeast cells were analyzed using an iQue flow cytometer (Sartorius). […]

For another assay, the target named is T2, KRAS(G12D) (Homo sapiens, UniProt P01116, G12D).
T2 construct: KRAS4B residues 1-174 containing G12C, G12V, G12D, G13D, Q61L, WT; made in house; host or cells: E. coli BL21(DE3) with pBirA
The experiment in a line: Yeast display binding titration, KRAS(G12D). The settings on record: GTPγS and GDP bound states. As to the method:
as §1, §2

The test system of assay [1] is endogenous KRAS from PATU8902 (KRAS(G12V)) and H358 (KRAS(G12C)). The assay can be described thus: Pull-down assay with biotinylated 12VC1 from cell lysates. The format is binding. The note with it: PATU8902 and H358 lysates vs growth factor stimulated HEK293T (wild-type RAS). As to the method:
Pull-down assays. H358, PATU8902, and HEK293T cells were cultured in 10 cm plates (Corning, #430167). H358 and PATU8902 cells were treated with and without ARS1620 (SelleckChem, 58707) at a final concentration of 10 μM for 1.5 hours, and HEK293T cells were treated with EGF (PeproTech; AF-100-15) at a final concentration of 50 ng/mL for 4 minutes. Cells were lysed by incubating them on ice for 15 minutes in GTPase lysis buffer (25 mM Tris-Cl pH 7.2, 150 mM NaCl, 5 mM MgCl2, 1% NP-40 and 5% glycerol supplemented with protease tablet (Roche, 5892991001) and phosphatase inhibitors (1 mM sodium orthovanadate, 10 mM NAF, 54 mM β-glycerol phosphate)) immediately before analysis. After centrifugation for 15 minutes at 15,000 g, the supernatants were collected and incubated with SA agarose resins (Thermo Fisher Scientific) for 1 hour at 4° C. to remove non-specific binders to the resins. After the removal of resins via centrifugation, the pre-cleared lysates were then incubated with biotinylated monobodies bound to SA agarose resins for 3 hours at 4° C. while rotating. The agarose resins were then washed twice with the GTPase lysis buffer and boiled in 1×SDS buffer with 37.5 mM β-mercaptoethanol and processed for Western blotting using a pan-RAS antibody (Santa Cruz Biotechnology, C-4).

In a further assay the target is T3, NRAS(WT) (Homo sapiens, UniProt P01111).
T3 construct: made in house; host or cells: E. coli BL21(DE3) with pBirA
T3 sequence (P01111 whole entry): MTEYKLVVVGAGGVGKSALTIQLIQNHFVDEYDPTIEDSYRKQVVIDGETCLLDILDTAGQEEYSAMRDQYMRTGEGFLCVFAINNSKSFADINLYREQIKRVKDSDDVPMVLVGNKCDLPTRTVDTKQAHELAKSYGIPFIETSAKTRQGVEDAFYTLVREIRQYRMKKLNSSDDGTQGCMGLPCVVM
The assay can be described thus: Yeast display binding titration, NRAS(WT). The settings on record: GTPγS and GDP bound states. As to the method:
as §1, §2

A further assay has as its target T4, KRAS(G12V) (Homo sapiens, UniProt P01116, G12V).
T4 construct: KRAS4B residues 1-174 containing G12C, G12V, G12D, G13D, Q61L, WT; His6 (N, cleaved yes); Avi-tag (N, cleaved yes); made in house; host or cells: E. coli BL21(DE3)
The experiment in a line: BLI binding to KRAS(G12V). The note with it: nucleotide state GTPγS. The source says: Protein expression and purification. All proteins used for monobody development and binding assays, including RAS constructs (KRAS4B residues 1-174 containing G12C, G12V, G12D, G13D, Q61L, WT, NRAS(WT), and HRAS(WT)), Monobodies, and RAF-1 RBD (residues 51-131) were produced with an N-terminal tag containing His6, Avi-tag for biotinylation and a TEV protease recognition site using the pHBT vector. The proteins were produced in E. coli BL21(DE3). To produce biotinylated proteins, E. coli BL21(DE3) with the pBirA plasmid was used as the host and grown in the presence of 50 μM of biotin. Expressed proteins were purified using Ni-Sepharose columns (GE Healthcare) via gravitational flow, followed by dialysis in Tris buffered saline (TBS, 50 mM Tris-Cl pH7.5 containing 150 mM NaCl) for non-RAS proteins. TBS containing 20 mM MgCl2 and 0.5 mM DTT was used for RAS proteins. Samples were further purified using a Superdex 75 size exclusion column on AKTA Pure systems (GE Healthcare). HRAS(WT) and HRAS(G12C) (residues 1-166) used for crystallization was produced as a fusion protein with His6 and yeast SUMO at the N terminus using an in-house vector described previously. […]
Biolayer interferometry (BLI) analysis. […] BLI signals were analyzed using Octet Data Analysis software (Molecular Devices).
In general terms: In BLI a coated tip is dipped into the sample, and binding shifts an interference pattern.

The target in another assay is KRAS(G12C) (Homo sapiens, UniProt P01116, G12C). The assay can be described thus: Competitive binding assay of 12VC1 against known interaction partners of RAS (yeast display). Details: KRAS4B residues 1-174 containing G12C, G12V, G12D, G13D, Q61L, WT; His6 (N, cleaved yes); Avi-tag (N, cleaved yes); made in house; host or cells: E. coli BL21(DE3).

One may read the koff as the first-order rate constant of dissociation. For the sequence “VSSVPTKLEVVAATPTSLLISWDAPAVTVFFYVITYGETGHGVGAFQAFKVPGSKSTATISGLKPGVDYTITVYARGYSKQGPYKPSPISINYRT [12VC1]”, the binding entry on KRAS(WT) is “did not detectably bind”; at KRAS(G12D), “no binding”; at NRAS(WT), “no binding; also recorded: did not detectably bind”. Besides, the “capture of endogenous KRAS in pull-down” value in assay [1] is “selectively captured endogenous KRAS”. Besides, the koff at KRAS(G12V) amounted to 0.007 s⁻¹. At KRAS(G12C), the “competition with RAF1-RBD for binding to RAS” value is “competed”.
